The text below walks through data of a melting point compilation (Tetko et al.; mined from patent text by program, amines drawn as free bases though some values may be those of a salt).

The structures appear in SMILES notation. A value given as a limit tells only on which side of the number the result lay.

`CCOC(=O)C1=C(N)NC(N)=C(C(=O)OCC)C1c1ccc(SC)cc1` yielded a melting point of 127 °C.

`COCCS(=O)(=O)c1ccc(F)c(C#Cc2cc(Cl)ccc2OCC(=O)O)c1` yielded a melting point of 125 to 128 °C.

Take `CC(C)C(NC(=O)N(C)Cc1nc2ccccc2[nH]1)C(=O)NN(C(=O)OCc1cccnc1)C(Cc1ccccc1)CC(O)CCc1ccccc1` (stereo unspecified): the melting point lay within 110 to 114 °C.

Consider `C[C@@H]1CN(c2c(F)c(N)c3c(=O)c(C(=O)O)cn(C4CC4)c3c2F)C[C@H]1N` (relative stereo), for which the melting point was in the range of 234 to 236 °C.

Take `C=Cc1ccc2c(c1)CC(CNC(=O)OC(C)(C)C)CC2` (stereo unspecified): the melting point lay in the range of 98 to 100 °C.

Consider `CNc1nccc(Oc2ccc(NC(=O)Nc3ccc(CN4CCN(C(C)(C)C)CC4)c(C(F)(F)F)c3)cc2)n1`, for which the melting point was 257 to 258 °C.

`Oc1ccc(Cn2cnc3c(-c4ccco4)ncnc32)cc1` showed a melting point of 231 to 233 °C.

Turning to `Cc1ccc(C(c2ccccc2)C(O)CN(C)C)cc1` (stereo unspecified), the melting point is 55 to 58 °C.

Consider `COc1ccc(C(=O)Cc2c(Cl)cncc2Cl)c2c1OC(C)(C)O2`, for which the melting point is 133 to 134 °C.

For the compound `N#Cc1c(O)ccc2oc(-c3ccc(O)cc3)cc12`, the melting point is more than 230 °C.

On to `CCOC(=O)c1cc2cc(Cl)ccc2n1C`, for which the melting point is 81.5 to 82 °C.

As to `Cc1nc2n(c(=O)c1CCO)CCS2`, the melting point is 149 °C.

In turn, `Cc1cc(C(=O)O)c(NC(=O)Nc2ccc(Oc3ccccc3)cc2)s1` returned a melting point of 213 to 215 °C.

As to `O=S(=O)(NC(c1ccc(F)cc1)c1ccnn1-c1ccc(F)cc1)c1ccc(Cl)s1` (stereo unspecified), the melting point is 159 to 160 °C.

As for `O=C1OC(=O)c2c(Cl)ccc(Cl)c21`, the melting point lay within 187 to 190 °C.

`CC(C)(C)OC(=O)n1c([Si](C)(C)C)cc2cnccc21` displayed a melting point of 112 °C.

`CN1CCCC(COc2ccc(/C=c3\[nH]c(=O)/c(=C/c4ccccc4)[nH]c3=O)nc2)C1` (stereo unspecified): the melting point lay in the range of 326 to 328 °C.

Compound `CC1(C)SC2CC(=O)N2C1C#N` (stereo unspecified) had a melting point of 73 to 75 °C.

`O=C(C(c1ccccc1)n1cnc2[nH]ncc2c1=S)N1CCN(c2ccccn2)CC1` (stereo unspecified) gave a melting point of 242 to 246 °C.

With `Cc1cc(C(=O)CBr)cc(C)c1O`, the melting point lay within 128 to 131 °C.

`COc1ccnc(N2CCN(C(=O)c3ccsc3)CC2)n1`: the melting point was 90 to 92 °C.

The compound `CCCNC(=O)C1(CCC)c2ccccc2Sc2ccccc21` had a melting point of 132 to 133 °C.

For the compound `N#CC(=NO)C(=O)NC(=O)NCCCCCC(N)=O`, the melting point is 187 to 189 °C.

The compound `Cc1oc2c(NC(=O)c3c(Cl)cccc3Cl)cccc2c1CC1CCCCC1` displayed a melting point of 189 to 190 °C.

Compound `c1ccc(OCc2ccc(OCc3ccc4ccccc4n3)cc2)cc1` displayed a melting point of 100 to 111 °C.

In turn, `Cc1oc(-c2ccc(C(F)(F)F)cc2)cc1C(=O)Nc1cccc(CCC(=O)O)c1` registered a melting point of 200 to 201 °C.

Compound `O=C1CCCC(=O)C1Br` registered a melting point of 153 to 154 °C.

`CCOC(=O)c1cn(C2CC2)c2c(Cl)c(F)c(Cl)cc2c1=O` returned a melting point of 215 to 217 °C.

`Cc1c(Cc2cccc(C(F)(F)F)c2)sc2c(-c3cc(C(=O)NCCO)ccn3)cccc12` showed a melting point of 201 to 202 °C.

In the case of `CCCCOc1ccc(S(=O)(=O)N2CCC(O)C2)cc1` (stereo unspecified), the melting point lay within 83 to 84 °C.

`O=C(Nc1ccc(I)cc1Cl)C(F)(F)F` came in with a melting point of 51 to 52 °C.

Compound `O=C(O)C(O)Cc1ccccc1[N+](=O)[O-]` (stereo unspecified) yielded a melting point of 95 to 98 °C.

As for `Cc1cc(-c2cc(O)c(Cl)cc2F)c(=O)n(C)c1C(F)(F)F`, the melting point fell in the range of 207 to 208 °C.

On to `CCCCCCCCCCNC(=O)c1cc(N)cc(C(=O)NCCCCCCCCCC)c1`, for which the melting point is 188 to 189 °C.

Turning to `COCCCCOc1ccc(OCc2ccccc2)cc1`, the melting point lay in the range of 60 to 61 °C.

`CCOC(=O)CNc1ccc2c3c(n(CCCNC(=O)OC(C)(C)C)c(=O)c2c1)-c1ccccc1C3=O`: the melting point was 203 to 204 °C.

In turn, `COc1cc(N)c(Cl)cc1Cn1nc(-c2ccc(Cl)c(Cl)c2)oc1=O` showed a melting point of 196 to 198 °C.

Consider `CN(C(=O)C(C)(C)C)C1(c2ccccc2)CCNCC1`, for which the melting point was found to be 125 °C.

In turn, `CN(C(=O)c1ccccn1)c1cc(F)cc(F)c1` returned a melting point of 102 to 104 °C.

As to `O=C(O)CCCCCCCNS(=O)(=O)c1ccc(F)cc1`, the melting point lay in the range of 97 to 98 °C.

Regarding `C#CCN(c1ccc(C(=O)O)cc1)C1CCc2cc3nc(COC(=O)C(C)(C)C)[nH]c(=O)c3cc21` (racemic), the melting point was 133 °C.

Take `CSc1nn(C)c2ccccc2c1=O`: the melting point was in the range of 173 to 175 °C.

As to `CCN1CC2CCCC2C1=C[N+](=O)[O-]` (stereo unspecified), the melting point was determined as 86 °C.

In turn, `COCCOCCCn1c(C=O)c(Br)c2c3c(c(-c4ccccc4Cl)cc21)C(=O)NC3=O` came in with a melting point of 168 to 169 °C.

Regarding `COc1nc2cc([N+](=O)[O-])c(C)c(C(=O)N(C)CC(=O)OC(C)(C)C)c2nc1OC`, the melting point was in the range of 102 to 105 °C.

`O=C(O)c1c(F)c(F)cc([N+](=O)[O-])c1F`: the melting point fell in the range of 98 to 99 °C.

For the compound `O=C(Cn1cnnn1)N(O)CCCP(=O)(O)O`, the melting point lay within 157 to 159 °C.

For `CCOC(=O)C=Cc1ccc(CCc2nc(-c3ccccc3)oc2C)cc1`, the melting point fell in the range of 73 to 74 °C.

For `CCOC(C)O[C@H]1C(=O)N(C(=O)OCc2ccccc2)[C@H]1c1ccccc1` (stereo partly specified), the melting point was in the range of 58 to 60 °C.

The compound `COC(=O)C1(CN=Cc2ccccc2)C=CC=CC1` (stereo unspecified) gave a melting point of 86 to 89 °C.

Turning to `COc1ccc2c(c1)N(c1ccc(F)cc1)C(=O)C2NC(=O)c1cc2ccccc2cn1` (stereo unspecified), the melting point fell in the range of 219 to 220 °C.

With `CC(C)CC1(C)NCCNC1=O` (stereo unspecified), the melting point is 79 to 82 °C.

In the case of `CCOC(=O)Cc1c(-c2ccc(OC)cc2)sc2c1c(=O)c(C(=O)OCC)cn2Cc1ccccc1F`, the melting point fell in the range of 199 to 201 °C.

Turning to `O=C(c1ccco1)c1cnn2c1NCCC2`, the melting point lay within 138 to 139 °C.

Regarding `COC1=CC(=O)C(O)=C(CCCCCCCC2OC2CCCCCCCC2=C(O)C(=O)C=C(OC)C2=O)C1=O` (stereo unspecified), the melting point was 134 to 136 °C.

As for `Cn1nnnc1C(C=O)=C(c1ccccc1)c1ccccc1`, the melting point was in the range of 185 to 186 °C.

`Cc1nc(OCC=C(F)F)c(C#N)c(N2CCc3ccccc3CC2)n1` yielded a melting point of 158 to 159 °C.

With `N=C(N)NCCCCCOc1cccc2c1NC(=O)C(CC(=O)O)C2` (stereo unspecified), the melting point lay in the range of 126 to 131 °C.

Turning to `CCOC(=O)c1nc2c(Cl)nc3cc(C(F)(F)F)ccc3n2c1CBr`, the melting point lay in the range of 196 to 198 °C.

In turn, `COc1cc(OC)c2c(=O)c(O)c(-c3ccc(OC)c(OC)c3)oc2c1` returned a melting point of 192 to 194 °C.

`O=C(O)CCc1ccc(OCC2CCN(c3ccncc3)CC2)cc1` showed a melting point of 303 to 307 °C.

Regarding `N#Cc1cccc(-c2ccc3c(Cl)cnc(NC(=N)N)c3c2)c1`, the melting point is more than 300 °C.

Take `S=C(NCCc1ccccc1Cl)Nc1ccccn1`: the melting point lay within 116 to 122 °C.

In turn, `CCOC(=O)Nc1ccc2c(c1)CCC2=O` yielded a melting point of 181 to 182 °C.

`CCCCCCCCCCCCCCCCNc1ccc(C(=O)NCCS(=O)(=O)O)cc1` gave a melting point of 190 to 220 °C.

The compound `N#CCc1cc(Cl)cc2c(-c3ccc(Cl)cc3)onc12` displayed a melting point of 187 to 190 °C.
